For 22 compounds, IC50 and EC50 results are on record in US12285431B2, “Treatment of Rb-negative tumors using topoisomerase inhibitors in combination with cyclin dependent kinase 4/6 inhibitors” (G1 Therapeutics, Inc., priority 2014, dated 2025).

For orientation: EC50 means the midpoint of the concentration-response curve. The low end stands for a more potent agent, the high end for a less potent agent.

Sequence of CDK4/CyclinD1 (P11802 whole entry, species assumed): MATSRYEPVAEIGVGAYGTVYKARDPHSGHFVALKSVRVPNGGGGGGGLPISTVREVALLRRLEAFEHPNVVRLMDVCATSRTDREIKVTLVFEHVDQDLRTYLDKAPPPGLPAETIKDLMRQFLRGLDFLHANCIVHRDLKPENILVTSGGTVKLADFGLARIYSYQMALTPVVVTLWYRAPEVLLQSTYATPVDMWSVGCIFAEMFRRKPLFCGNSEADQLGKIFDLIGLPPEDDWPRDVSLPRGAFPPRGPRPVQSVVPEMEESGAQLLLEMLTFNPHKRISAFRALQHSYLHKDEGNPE
Sequence of CDK4/CyclinD1 (P24385 whole entry partner, species assumed): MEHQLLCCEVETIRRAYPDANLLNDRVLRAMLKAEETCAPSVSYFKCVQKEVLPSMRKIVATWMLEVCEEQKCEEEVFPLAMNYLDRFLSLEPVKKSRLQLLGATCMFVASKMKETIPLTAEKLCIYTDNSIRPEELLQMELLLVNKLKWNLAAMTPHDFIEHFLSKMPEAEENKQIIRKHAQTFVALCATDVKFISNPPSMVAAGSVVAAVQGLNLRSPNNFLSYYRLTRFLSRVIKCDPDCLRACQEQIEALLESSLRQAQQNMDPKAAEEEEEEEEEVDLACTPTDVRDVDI

The first assay deals with CDK4/CyclinD1 (Homo sapiens, UniProt P11802). Briefly: CDK4/cyclinD1 kinase assay (Nanosyn, Caliper microfluidic kinase detection). As to conditions: Table 2; 12-point dose-response, ATP at Km (200 μM), 10 hr; read-out: CDK4/CycD1 IC50. The class given is biochemical. As to the method:
The assays were performed using microfluidic kinase detection technology (Caliper Assay Platform). The compounds were tested in 12-point dose-response format in singlicate at Km for ATP. Phosphoacceptor substrate peptide concentration used was 1 μM for all assays and Staurosporine was used as the reference compound for all assays. Specifics of each assay are as described below:
CDK4/CyclinD1: Enzyme concentration: 1 nM; ATP concentration: 200 μM; Incubation time: 10 hr.
With `O=C1NCC2(CCCCC2)n2c1cc1cnc(Nc3ccc(N4CCN(CC5CC5)CC4)cn3)nc12` [HH], the IC50 came to 1.7 nM.
On the same count and under the same terms, for `CC(C)N1CCN(c2ccc(Nc3ncc4cc5n(c4n3)C3(CCCC3)CNC5=O)nc2)CC1` [III] the value was 6 nM; for `CCC(C)CN1[C@H](C)CN(c2ccc(Nc3ncc4cc5n(c4n3)C3(CCCC3)CNC5=O)nc2)C[C@@H]1C` (stereo partly shown) [JJJ], 3.2 nM; for `CC(C)(C)CCN1CCN(c2ccc(Nc3ncc4cc5n(c4n3)C3(CCCC3)CNC5=O)nc2)CC1` [KKK], 1.3 nM.
The same measure, in the same setting: for `CCN(CC)C1CCN(c2ccc(Nc3ncc4cc5n(c4n3)C3(CCCC3)CNC5=O)nc2)CC1` [LLL] the value was 3.2 nM.
Same read-out and setting: for `CC1CN(c2ccc(Nc3ncc4cc5n(c4n3)C3(CCCC3)CNC5=O)nc2)CCN1CC1CC1` (stereo not shown) [NNN] the value was 1.4 nM.
With `C[C@@H]1CN(c2ccc(Nc3ncc4cc5n(c4n3)C3(CCCCC3)CNC5=O)nc2)CCN1C` [NN], the IC50 was determined as 3.7 nM.
As for `O=C1NCC2(CCCC2)n2c1cc1cnc(Nc3ccc(N4CCNCC4)cn3)nc12` [QQQ], the IC50 was determined as 10.5 nM.
Same read-out and setting: for `CC(C)N1CCN(c2ccc(Nc3ncc4cc5n(c4n3)C3(CCCC3)CNC5=O)nn2)CC1` [RRR] the value was 2.6 nM.
On the same count and under the same terms, for `O=C1NCC2(CCCC2)n2c1cc1cnc(Nc3ccc(N4CCOCC4)nn3)nc12` [SSS] the value was 2 nM; for `CN(C)C1CCN(c2ccc(Nc3ncc4cc5n(c4n3)C3(CCCC3)CNC5=O)nn2)CC1` [TTT], 3.4 nM; for `CC(C)N1CCN(c2ccc(Nc3ncc4cc5n(c4n3)C3(CCCCC3)CNC5=O)nn2)CC1` [TT], 0.8 nM.
Still for that read-out and setting: for `C[C@@H](O)CN1CCN(c2ccc(Nc3ncc4cc5n(c4n3)C3(CCCC3)CNC5=O)nc2)C[C@@H]1C` [VV] the value was 3.3 nM; for `CC(C)C[C@@H]1CNC(=O)c2cc3cnc(Nc4ccc(N5CCNCC5)cn4)nc3n21` [WWW], 18.5 nM; for `CC(C)C[C@@H]1CNC(=O)c2cc3cnc(Nc4ccc(N5CCN(C)CC5)cn4)nc3n21` [XXX], 11.4 nM.
Consider `C[C@H](O)CN1CCN(c2ccc(Nc3ncc4cc5n(c4n3)C3(CCCC3)CNC5=O)nc2)C[C@H]1C` [XX], for which the IC50 was determined as 1.3 nM.
Still for that read-out and setting: for `O=C1NCC2(CCCCC2)n2c1cc1cnc(Nc3ccc(C(=O)N4CCNCC4)cn3)nc12` [Y] the value was 2.5 nM; for `CN1CCN(c2ccc(Nc3ncc4cc5n(c4n3)C3(CCCC3)CNC5=O)nc2)CC1` [ZZ], 10.5 nM.

The next assay has as its system HS68 cells. Briefly: G1 arrest (cellular G1 and S-phase) assay, propidium iodide flow cytometry. Type of assay: cell-based, human. The settings on record: Homo sapiens, Hs68, HS68 cells. As to the method: HS68 cells (human skin fibroblast cell line (Rb-positive)) were stained with propidium iodide staining solution and run on Dako Cyan Flow Cytometer. The fraction of cells in G0-G1 DNA cell cycle versus the fraction in S-phase DNA cell cycle was determined using FlowJo 7.2.2 analysis.
The compounds listed in Table 1 were tested for their ability to arrest HS68 cells at the G1 phase of the cell cycle.
For orientation: In flow cytometry, cells or beads pass a laser one at a time.
Take `O=C1NCC2(CCCCC2)n2c1cc1cnc(Nc3ccc(N4CCN(CC5CC5)CC4)cn3)nc12` [HH]: the midpoint of the response, the EC50, lay at 110 nM.
On the same count and under the same terms, the result for `CC(C)N1CCN(c2ccc(Nc3ncc4cc5n(c4n3)C3(CCCC3)CNC5=O)nc2)CC1` [III] reads 250 nM.
The same measure, in the same setting: for `CCC(C)CN1[C@H](C)CN(c2ccc(Nc3ncc4cc5n(c4n3)C3(CCCC3)CNC5=O)nc2)C[C@@H]1C` (stereo partly shown) [JJJ] the value was 240 nM; for `CC(C)(C)CCN1CCN(c2ccc(Nc3ncc4cc5n(c4n3)C3(CCCC3)CNC5=O)nc2)CC1` [KKK], 190 nM.
In the case of `CCN(CC)C1CCN(c2ccc(Nc3ncc4cc5n(c4n3)C3(CCCC3)CNC5=O)nc2)CC1` [LLL], the EC50 stood at 250 nM.
The same measure, in the same setting: the result for `C[C@H]1CN(c2ccc(Nc3ncc4cc5n(c4n3)C3(CCCCC3)CNC5=O)nc2)CCN1CCC(C)(C)C` [M] reads 100 nM.
The same measure, in the same setting: for `CC1CN(c2ccc(Nc3ncc4cc5n(c4n3)C3(CCCC3)CNC5=O)nc2)CCN1CC1CC1` (stereo not shown) [NNN] the value was 210 nM; for `C[C@@H]1CN(c2ccc(Nc3ncc4cc5n(c4n3)C3(CCCCC3)CNC5=O)nc2)CCN1C` [NN], 110 nM.
On to `CC1CN(c2ccc(Nc3ncc4cc5n(c4n3)C3(CCCC3)CNC5=O)nc2)CCN1CCC(C)(C)C` (stereo not shown) [PPP], for which the 50% effective concentration (EC50) is 275 nM.
On the same count and under the same terms, the result for `O=C1NCC2(CCCC2)n2c1cc1cnc(Nc3ccc(N4CCNCC4)cn3)nc12` [QQQ] reads 500 nM; that for `CC(C)N1CCN(c2ccc(Nc3ncc4cc5n(c4n3)C3(CCCC3)CNC5=O)nn2)CC1` [RRR], 400 nM.
Compound `O=C1NCC2(CCCC2)n2c1cc1cnc(Nc3ccc(N4CCOCC4)nn3)nc12` [SSS] registered an EC50 of 1500 nM.
On the same count and under the same terms, the result for `CN(C)C1CCN(c2ccc(Nc3ncc4cc5n(c4n3)C3(CCCC3)CNC5=O)nn2)CC1` [TTT] reads 350 nM; that for `CC(C)N1CCN(c2ccc(Nc3ncc4cc5n(c4n3)C3(CCCCC3)CNC5=O)nn2)CC1` [TT], 75 nM; that for `CC(C)[C@H]1CNC(=O)c2cc3cnc(Nc4ccc(N5CCNCC5)cn4)nc3n21` [UUU], 300 nM.
Same read-out and setting: the result for `CCC(C)[C@@H]1CNC(=O)c2cc3cnc(Nc4ccc(N5CCNCC5)cn4)nc3n21` (stereo partly shown) [VVV] reads 300 nM.
On the same count and under the same terms, for `C[C@@H](O)CN1CCN(c2ccc(Nc3ncc4cc5n(c4n3)C3(CCCC3)CNC5=O)nc2)C[C@@H]1C` [VV] the value was 200 nM; for `CC(C)C[C@@H]1CNC(=O)c2cc3cnc(Nc4ccc(N5CCNCC5)cn4)nc3n21` [WWW], 300 nM; for `CC(C)C[C@@H]1CNC(=O)c2cc3cnc(Nc4ccc(N5CCN(C)CC5)cn4)nc3n21` [XXX], 300 nM.
On to `C[C@H](O)CN1CCN(c2ccc(Nc3ncc4cc5n(c4n3)C3(CCCC3)CNC5=O)nc2)C[C@H]1C` [XX], for which it took 225 nM to reach a half-maximal effect (EC50).
`O=C1NCC2(CCCCC2)n2c1cc1cnc(Nc3ccc(C(=O)N4CCNCC4)cn3)nc12` [Y] had a half-maximal effective concentration (EC50) of 350 nM.
The same measure, in the same setting: the result for `CN1CCN(c2ccc(Nc3ncc4cc5n(c4n3)C3(CCCC3)CNC5=O)nc2)CC1` [ZZ] reads 500 nM.
